Assay results as given in publication PMC10671050, “Alkyl Derivatives of Perylene Photosensitizing Antivirals: Towards Understanding the Influence of Lipophilicity” (International Journal of Molecular Sciences, 2023).
Converted amounts (≈) assume the structure as drawn. “Also recorded” adds a separate entry of the source. Like-named read-outs stand apart in the source and are kept apart here.

Columns and labels:
HSV-1, strain MacIntyre [1] = assay: Photodynamic inactivation of HSV-1 (virus treated with compound, plaque assay); assay type: cell-based, herpes simplex virus-1; settings: for HSV-1-inactivating effect after blue light irradiation: 10 µM
[2] = assay type: physicochemical; settings: methanol, DPBF trap, 450–470 nm, relative to riboflavin
VSV Indiana strain = assay: microbe, parasite or virus in culture; assay type: cell-based, vesicular stomatitis Indiana virus; settings: Vesicular stomatitis virus, HEK-293T, 1 h, read-out: VSV, EC50
[3] = Light-induced cytotoxicity (photocytotoxicity) in Vero cells; assay type: cell-based, African Green Monkey; settings: African green monkey, Vero cells; blue light 465–480 nm, 10 min, then 48 h; read-out: cell viability of Vero cells after irradiation
Protocol: (§1) Subsequently, cells treated with the compounds were irradiated with LEDs (465–480 nm, 30 mW/cm^2) for 10 min at RT. As a negative control, compound-treated cells were incubated for 10 min in daylight at RT. Then, both the irradiated and non-irradiated cell monolayers were incubated at 37 °C in the dark for 48 h. Subsequently, the cell culture medium was aspirated and the cytotoxicity of the tested perylene derivatives was determined based on cell viability using Cell Counting Kit-8 (Dojindo Molecular Technologies, Munich, Germany) according to the manufacturer’s instructions. Note: all manipulation with samples was performed in daylight (Figure 7K).

Vero cells = assay: as above; assay type: cell-based, African Green Monkey; settings: blue light 10 min vs daylight, 0–10 µM, 48 h
Protocol: as §1

[4] = Solubilization in 15% DMSO in water; settings: for solubility: aqueous with cosolvent or surfactant or cyclodextrin, kinetic from dmso stock
Protocol: To perform this measurement, the compound was dissolved in DMSO and then diluted with water to achieve a solution containing 15% DMSO. The solution was centrifuged, and the resulting supernatant was lyophilized (evaporated) to dryness. Subsequently, the dry residue was dissolved in DMSO, and the concentration of the compound dissolved in DMSO was determined spectrophotometrically.
The mixtures were then centrifuged at 20,000 rcf for 5 min; 500 μL of the supernatant were collected and lyophilized; 76 µL of DMSO were added to the dry residue, and the absorbance was measured at the maximum absorption wavelength for compounds in solutions diluted 200 times with methanol. The data obtained were recalculated according to the law of dilutions and Beer’s law to obtain the initial concentrations of the compounds solubilized in 15% DMSO in water.

HSV-1, strain MacIntyre [5] = assay: HSV-1 titer reduction assay in Vero cells; settings: 48 h; for viral replication and spread in HSV-1-infected Vero cell culture: inside cell culture (Figure 6C)
[6] = Cytotoxicity assay in Vero cells (Cell Counting Kit-8); assay type: cell-based; settings: African green monkey, 48 h incubation, compared to controls (DMSO-treated cells)
Protocol: Vero cells were cultured for 24 h in 96-well plates to form a confluent monolayer and then were treated with the tested compounds at concentrations of 50 µM. After 48 h of cultivation in the dark at 37 °C under 5% CO2, the cell culture medium was aspirated. The potential cytotoxicity of the tested derivatives was determined based on cell viability using Cell Counting Kit-8 (Dojindo Molecular Technologies, Munich, Germany) according to the manufacturer’s instructions.

[7] = Human alphaherpesvirus 1, 10 min, HSV-1 10^4 PFU/mL, blue light 465–480 nm, 30 mW/cm^2, 10 min, plaque assay, read-out: EC50 (µM) under Blue Light
[8] = 10 µM, viral titer in medium supernatant
[9] = Human alphaherpesvirus 1, 10 min, HSV-1 10^4 PFU/mL, 10 min in daylight, plaque assay, read-out: EC50 (µM) in Daylight

Row | SMILES | 1O2 Quantum Yield [2] | EC50 (VSV Indiana strain) | solubility [4] | anti-HSV-1 activity in Vero cells (HSV-1, strain MacIntyre [5]; [8]) | further results
1 | O=C(O)c1ccc(-c2ccc3c4cccc5cccc(c6cccc2c63)c54)s1 [Compound 15, 5-(perylene-3-yl)thiophenecarboxylic acid, reference compound] | 73.2 ± 8.9% | < 10 µM |  |  | EC50 (HSV-1, strain MacIntyre [1]; [7]): 0.038 µM
2 | CCCCCCCCCCCCc1ccc2c3cccc4c(C#Cc5cn([C@@H]6O[C@H](CO)[C@@H](O)[C@@H]6O)c(=O)[nH]c5=O)ccc(c5cccc1c52)c43 [Compound 9c, 5-[9(10)-Dodecylperylen-3-ylethynyl]-arabino-uridine] | 22.5 ± 3.4% | > 175 µM | 0.24 µM (≈ 0.165 µg/mL) | completely inactive | viability at 48 h [3]: 115 to 128%; photocytotoxicity to Vero cells (Vero cells): did not increase the cytotoxicity
3 | CCCCCCCCc1ccc2c3cccc4c(C#Cc5cn([C@@H]6O[C@H](CO)[C@@H](O)[C@@H]6O)c(=O)[nH]c5=O)ccc(c5cccc1c52)c43 [Compound 9b, 5-[9(10)-Octylperylen-3-ylethynyl]-arabino-uridine] | 18.6 ± 2.3% | 10 to 200 µM | 0.38 µM (≈ 0.24 µg/mL) | only moderately active | HSV-1-inactivating effect after blue light irradiation (HSV-1, strain MacIntyre [1]): complete inactivation of HSV-1; viability at 48 h [3]: 115 to 128%; photocytotoxicity to Vero cells (Vero cells): did not increase the cytotoxicity; times less effectively dissolved than deoxy- and ribo- analogs (10b, 11b) ([4]; 15% DMSO in water): approximately 1.5 times
4 | Oc1ccc(C#Cc2ccc3c4cccc5cccc(c6cccc2c63)c54)cc1Br [Compound 14, reference compound] |  | 10 to 200 µM |  |  | viability at 48 h, 10 µM [6]: 109 to 122%
5 | CCCCc1ccc2c3cccc4c(C#Cc5cn([C@@H]6O[C@H](CO)[C@@H](O)[C@H]6O)c(=O)[nH]c5=O)ccc(c5cccc1c52)c43 [Compound 10a, 5-[9(10)-Butylperylen-3-ylethynyl]-ribo-uridine] | 23.1 ± 2.2% | 10 to 200 µM | 0.02 µM (≈ 0.0115 µg/mL) | completely inhibited viral replication; also recorded: higher antiviral potency compared to acyclovir | viability at 48 h, 10 µM [6]: ~80%; Decrease in EC50 (Fold) (HSV-1, strain MacIntyre [1]): 20.3 fold; EC50 (HSV-1, strain MacIntyre [1]; [9]): 2.18 µM; EC50 (HSV-1, strain MacIntyre [1]; [7]): 0.107 µM; solubility in 15% DMSO in water ([4]; 15% DMSO in water): lower solubility; viral replication and spread in HSV-1-infected Vero cell culture (HSV-1, strain MacIntyre [5]; 10 µM): did not suppress viral replication and spread
6 | Nc1nc2c(ncn2COCCO)c(=O)[nH]1 [acyclovir, reference compound] |  |  |  |  | anti-HSV-1 activity in Vero cells (HSV-1, strain MacIntyre [5]; 50 µM): completely inhibited HSV-1 replication
7 | O=c1[nH]c(=O)n([C@H]2C[C@H](O)[C@@H](CO)O2)cc1C#Cc1ccc2c3cccc4cccc(c5cccc1c52)c43 [Compound 11, reference compound] | 38.6 ± 0.8% | < 10 µM |  |  | 
8 | CCCCCCCCCCCCc1ccc2c3cccc4c(C#Cc5cn([C@@H]6O[C@H](CO)[C@@H](O)[C@H]6O)c(=O)[nH]c5=O)ccc(c5cccc1c52)c43 [Compound 10c, 5-[9(10)-Dodecylperylen-3-ylethynyl]-ribo-uridine] | 28.7 ± 8.6% | > 200 µM | 0.24 µM (≈ 0.165 µg/mL) | completely inactive | 
9 | O=c1[nH]c(=O)n([C@@H]2O[C@H](CO)[C@@H](O)[C@H]2O)cc1C#Cc1ccc2c3cccc4cccc(c5cccc1c52)c43 [Compound 10, reference compound] | 33.6 ± 1.2% | < 10 µM |  |  | EC50 (HSV-1, strain MacIntyre [1]; [7]): 0.116 µM
10 | O=c1[nH]c(=O)n([C@@H]2O[C@H](CO)[C@@H](O)[C@@H]2O)cc1C#Cc1ccc2c3cccc4cccc(c5cccc1c52)c43 [Compound 9, reference compound] | 40.1 ± 4.0% | < 10 µM |  |  | 
11 | Oc1cccc(C#Cc2ccc3c4cccc5cccc(c6cccc2c63)c54)c1 [Compound 13, reference compound] |  | 10 to 200 µM |  |  | viability at 48 h, 10 µM [6]: 109 to 122%
12 | CCCCCCCCc1ccc2c3cccc4c(C#Cc5cn([C@@H]6O[C@H](CO)[C@@H](O)[C@H]6O)c(=O)[nH]c5=O)ccc(c5cccc1c52)c43 [Compound 10b, 5-[9(10)-Octylperylen-3-ylethynyl]-ribo-uridine] | 19.2 ± 1.5% | > 200 µM | 0.59 µM (≈ 0.372 µg/mL) | only moderately active | HSV-1-inactivating effect after blue light irradiation (HSV-1, strain MacIntyre [1]): complete inactivation of HSV-1
13 | CCCCCCCCCCCCc1ccc2c3cccc4c(-c5ccc(C(=O)O)s5)ccc(c5cccc1c25)c43 [Compound 15c, 5-[9(10)-Dodecylperylen-3-yl]thiophene-2-carboxylic acid] | 79.8 ± 8.9% | 10 to 200 µM | 0.05 µM (≈ 0.0273 µg/mL) | no anti-HSV-1 activity | HSV-1-inactivating effect after blue light irradiation (HSV-1, strain MacIntyre [1]): no virus-inactivating effect
14 | CCCCCCCCc1ccc2c3cccc4c(C#Cc5cn([C@H]6C[C@H](O)[C@@H](CO)O6)c(=O)[nH]c5=O)ccc(c5cccc1c52)c43 [Compound 11b, 5-[9(10)-Octylperylen-3-ylethynyl]-deoxy-uridine] | 21.0 ± 2.0% | 10 to 200 µM | 0.67 µM (≈ 0.412 µg/mL) | only moderately active | viability at 48 h, 10 µM [6]: ~120%
15 | CCCCc1ccc2c3cccc4c(-c5ccc(C(=O)O)s5)ccc(c5cccc1c25)c43 [Compound 15a, 5-[9(10)-Butylperylen-3-yl]thiophene-2-carboxylic acid] | 91.6 ± 0.2% | 0.2 ± 0.2 µM | 0.11 µM (≈ 0.0478 µg/mL) | complete inhibition; also recorded: higher antiviral potency compared to acyclovir | Decrease in EC50 (Fold) (HSV-1, strain MacIntyre [1]): 5.4 fold; fold less active than non-alkylated counterparts (12, 15) (HSV-1, strain MacIntyre [1]): ~3 fold; EC50 (HSV-1, strain MacIntyre [1]; HSV-1 10^4 PFU/mL, 10 min in daylight, plaque assay, read-out: EC50 (µM) in Daylight): 0.608 µM; EC50 (HSV-1, strain MacIntyre [1]; HSV-1 10^4 PFU/mL, blue light 465–480 nm, 30 mW/cm^2, 10 min, plaque assay, read-out: EC50 (µM) under Blue Light): 0.112 µM; EC50 (HSV-1, strain MacIntyre [1]; [9]): 0.61 µM; EC50 (HSV-1, strain MacIntyre [1]; [7]): ~0.1 µM; viral replication and spread in HSV-1-infected Vero cell culture (HSV-1, strain MacIntyre [5]; 10 µM): did not suppress viral replication and spread
16 | Oc1ccc(C#Cc2ccc3c4cccc5cccc(c6cccc2c63)c54)cc1 [Compound 12, reference compound] |  | 10 to 200 µM |  |  | viability at 48 h, 10 µM [6]: 109 to 122%; EC50 (HSV-1, strain MacIntyre [1]; Human alphaherpesvirus 1, 10 min, read-out: EC50 (µM) under Blue Light): 0.472 µM
17 | CCCCCCCCc1ccc2c3cccc4c(-c5ccc(C(=O)O)s5)ccc(c5cccc1c25)c43 [Compound 15b, 5-[9(10)-Octylperylen-3-yl]thiophene-2-carboxylic acid] | 72.9 ± 5.6% | 10 to 200 µM | 0.1 µM (≈ 0.0491 µg/mL) | complete inhibition; also recorded: higher antiviral potency compared to acyclovir | Decrease in EC50 (Fold) (HSV-1, strain MacIntyre [1]): >3.5 fold; fold less active than non-alkylated counterparts (12, 15) (HSV-1, strain MacIntyre [1]): ~3 fold; HSV-1-inactivating effect in daylight (HSV-1, strain MacIntyre [1]; 0–10 µM, daylight): only partial or no viral inactivation; also recorded: no virus-inactivating effect; EC50 (HSV-1, strain MacIntyre [1]; [9]): > 10 µM; EC50 (HSV-1, strain MacIntyre [1]; [7]): 2.89 µM; viral replication and spread in HSV-1-infected Vero cell culture (HSV-1, strain MacIntyre [5]; 10 µM): did not suppress viral replication and spread
